Data from PubChem BioAssay (NCI).
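Cultured in 96-well plates, cells were exposed to test compound for 48 hours across five concentrations. TGI is the concentration that stops growth completely.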

Columns and labels:
Assay in all cases: growth of human tumour cells (NCI), 48 h
SK-MEL-2 melanoma = test system: SK-MEL-2 melanoma
SN12C renal = test system: SN12C renal
UACC-257 melanoma = test system: UACC-257 melanoma
HCT-15 colon = test system: HCT-15 colon
MDA-MB-435 = test system: MDA-MB-435
EKVX NSCLC = test system: EKVX NSCLC
SR leukemia = test system: SR leukemia
T-47D breast = test system: T-47D breast
TK-10 renal = test system: TK-10 renal
ACHN renal = test system: ACHN renal
NCI-H522 lung = test system: NCI-H522 lung
DU-145 prostate = test system: DU-145 prostate
U251 CNS = test system: U251 CNS
UO-31 renal = test system: UO-31 renal
OVCAR-3 ovarian = test system: OVCAR-3 ovarian
SF-295 CNS = test system: SF-295 CNS
KM12 colon = test system: KM12 colon
MDA-MB-231 breast = test system: MDA-MB-231 breast
HL-60(TB) leukemia = test system: HL-60(TB) leukemia
HOP-62 NSCLC = test system: HOP-62 NSCLC
MALME-3M melanoma = test system: MALME-3M melanoma
OVCAR-8 ovarian = test system: OVCAR-8 ovarian
NCI-H23 lung = test system: NCI-H23 lung
MDA-N = test system: MDA-N
NCI/ADR-RES ovarian = test system: NCI/ADR-RES ovarian
HOP-92 NSCLC = test system: HOP-92 NSCLC
786-0 renal = test system: 786-0 renal
IGROV1 ovarian = test system: IGROV1 ovarian
SNB-19 CNS = test system: SNB-19 CNS
PC-3 prostate = test system: PC-3 prostate
K-562 leukemia = test system: K-562 leukemia
HCT-116 colon = test system: HCT-116 colon
UACC-62 melanoma = test system: UACC-62 melanoma
SNB-75 CNS = test system: SNB-75 CNS
SK-MEL-28 melanoma = test system: SK-MEL-28 melanoma
HT29 colon = test system: HT29 colon
HCC-2998 colon = test system: HCC-2998 colon
SF-268 CNS = test system: SF-268 CNS
SK-OV-3 ovarian = test system: SK-OV-3 ovarian
RPMI-8226 leukemia = test system: RPMI-8226 leukemia
HS 578T breast = test system: HS 578T breast
BT-549 breast = test system: BT-549 breast
OVCAR-5 ovarian = test system: OVCAR-5 ovarian
A549 NSCLC = test system: A549 NSCLC
OVCAR-4 ovarian = test system: OVCAR-4 ovarian
LOX IMVI melanoma = test system: LOX IMVI melanoma
SW-620 colon = test system: SW-620 colon
M14 melanoma = test system: M14 melanoma
CAKI-1 renal = test system: CAKI-1 renal
A498 renal = test system: A498 renal
NCI-H460 lung = test system: NCI-H460 lung
RXF 393 renal = test system: RXF 393 renal
MCF7 breast = test system: MCF7 breast
COLO 205 colon = test system: COLO 205 colon
SK-MEL-5 melanoma = test system: SK-MEL-5 melanoma
CCRF-CEM leukemia = test system: CCRF-CEM leukemia
SF-539 CNS = test system: SF-539 CNS
NCI-H226 lung = test system: NCI-H226 lung
MOLT-4 leukemia = test system: MOLT-4 leukemia

c1ccc2sc(SCCSc3nc4ccccc4s3)nc2c1 was tested, and the TGI (SK-MEL-2 melanoma) was > 100 µM, the TGI (SN12C renal) was > 100 µM and the TGI (UACC-257 melanoma) was > 100 µM. For the same molecule, the TGI (HCT-15 colon) was > 100 µM, the TGI (MDA-MB-435) was > 100 µM and the TGI (EKVX NSCLC) was > 100 µM. For the same molecule, the TGI (SR leukemia) was > 100 µM, the TGI (T-47D breast) was > 100 µM and the TGI (TK-10 renal) was > 100 µM. The TGI (ACHN renal) was > 100 µM, the TGI (NCI-H522 lung) was > 100 µM and the TGI (DU-145 prostate) was > 100 µM. The TGI (U251 CNS) was > 100 µM, the TGI (UO-31 renal) was > 100 µM and the TGI (OVCAR-3 ovarian) was > 100 µM. For the same molecule, the TGI (SF-295 CNS) was > 100 µM, the TGI (KM12 colon) was > 100 µM and the TGI (MDA-MB-231 breast) was > 100 µM. For the same molecule, the TGI (HL-60(TB) leukemia) was > 100 µM, the TGI (HOP-62 NSCLC) was > 100 µM and the TGI (MALME-3M melanoma) was > 100 µM. For the same molecule, the TGI (OVCAR-8 ovarian) was > 100 µM, the TGI (NCI-H23 lung) was > 100 µM and the TGI (MDA-N) was > 100 µM. For the same molecule, the TGI (NCI/ADR-RES ovarian) was > 100 µM, the TGI (HOP-92 NSCLC) was > 100 µM and the TGI (786-0 renal) was > 100 µM. For the same molecule, the TGI (IGROV1 ovarian) was > 100 µM, the TGI (SNB-19 CNS) was > 100 µM and the TGI (PC-3 prostate) was > 100 µM. The TGI (K-562 leukemia) was > 100 µM, the TGI (HCT-116 colon) was > 100 µM and the TGI (UACC-62 melanoma) was > 100 µM. The TGI (SNB-75 CNS) was > 100 µM, the TGI (SK-MEL-28 melanoma) was > 100 µM and the TGI (HT29 colon) was > 100 µM. For the same molecule, the TGI (HCC-2998 colon) was > 100 µM, the TGI (SF-268 CNS) was > 100 µM and the TGI (SK-OV-3 ovarian) was > 100 µM. The TGI (RPMI-8226 leukemia) was > 100 µM, the TGI (HS 578T breast) was > 100 µM and the TGI (BT-549 breast) was > 100 µM. The TGI (OVCAR-5 ovarian) was > 100 µM, the TGI (A549 NSCLC) was > 100 µM and the TGI (OVCAR-4 ovarian) was > 100 µM. For the same molecule, the TGI (LOX IMVI melanoma) was > 100 µM, the TGI (SW-620 colon) was > 100 µM and the TGI (M14 melanoma) was > 100 µM. For the same molecule, the TGI (CAKI-1 renal) was > 100 µM, the TGI (A498 renal) was > 100 µM and the TGI (NCI-H460 lung) was > 100 µM. The TGI (RXF 393 renal) was > 100 µM and the TGI (MCF7 breast) was > 100 µM.
COC(=O)c1n[nH]c(C)c1N=NN(C)CCC#N was tested, and the TGI (SK-MEL-2 melanoma) was 61.9 µM, the TGI (SN12C renal) was 33.8 µM and the TGI (UACC-257 melanoma) was > 100 µM. For the same molecule, the TGI (HCT-15 colon) was 32.1 µM, the TGI (MDA-MB-435) was > 100 µM and the TGI (EKVX NSCLC) was 29.2 µM. It also gave a TGI (SR leukemia) of 44.6 µM, a TGI (T-47D breast) of 93 µM and a TGI (TK-10 renal) of 62.4 µM. The TGI (ACHN renal) was 25.4 µM, the TGI (NCI-H522 lung) was 25.1 µM and the TGI (DU-145 prostate) was 51.6 µM. The TGI (U251 CNS) was 41.5 µM, the TGI (UO-31 renal) was 13.3 µM and the TGI (OVCAR-3 ovarian) was 42.2 µM. It also gave a TGI (SF-295 CNS) of 73.4 µM, a TGI (KM12 colon) of 51.4 µM and a TGI (COLO 205 colon) of 26.9 µM. It also gave a TGI (MDA-MB-231 breast) of 62.8 µM, a TGI (HL-60(TB) leukemia) of 87.6 µM and a TGI (HOP-62 NSCLC) of 37 µM. The TGI (MALME-3M melanoma) was 34.6 µM, the TGI (OVCAR-8 ovarian) was 34.4 µM and the TGI (NCI-H23 lung) was 36.5 µM. The TGI (MDA-N) was > 100 µM, the TGI (NCI/ADR-RES ovarian) was 36.4 µM and the TGI (HOP-92 NSCLC) was 35 µM. For the same molecule, the TGI (786-0 renal) was 48.4 µM, the TGI (IGROV1 ovarian) was 93.6 µM and the TGI (SNB-19 CNS) was 87 µM. It also gave a TGI (PC-3 prostate) of 74.7 µM, a TGI (K-562 leukemia) of 60 µM and a TGI (SK-MEL-5 melanoma) of 74.5 µM. The TGI (HCT-116 colon) was 46.3 µM, the TGI (UACC-62 melanoma) was 35.2 µM and the TGI (SNB-75 CNS) was 33 µM. For the same molecule, the TGI (SK-MEL-28 melanoma) was > 100 µM, the TGI (HT29 colon) was 87.8 µM and the TGI (HCC-2998 colon) was 44.1 µM. For the same molecule, the TGI (SF-268 CNS) was 50 µM, the TGI (SK-OV-3 ovarian) was 61.5 µM and the TGI (RPMI-8226 leukemia) was 34.9 µM. The TGI (HS 578T breast) was 52 µM, the TGI (BT-549 breast) was 28.6 µM and the TGI (CCRF-CEM leukemia) was 41.5 µM. The TGI (SF-539 CNS) was 30.3 µM, the TGI (A549 NSCLC) was > 100 µM and the TGI (OVCAR-4 ovarian) was 30.7 µM. For the same molecule, the TGI (LOX IMVI melanoma) was > 100 µM, the TGI (SW-620 colon) was 34 µM and the TGI (M14 melanoma) was > 100 µM. The TGI (NCI-H226 lung) was 35.8 µM, the TGI (CAKI-1 renal) was 33.4 µM and the TGI (A498 renal) was > 100 µM. It also gave a TGI (NCI-H460 lung) of 36.5 µM, a TGI (RXF 393 renal) of 29.7 µM and a TGI (MOLT-4 leukemia) of 15.1 µM. For the same molecule, the TGI (MCF7 breast) was 25.7 µM.
With CCCCNC(=O)c1cc2c(cc1Cl)Sc1nccn1S2(=O)=O the TGI (SK-MEL-2 melanoma) was > 100 µM, the TGI (SN12C renal) was > 100 µM and the TGI (UACC-257 melanoma) was > 100 µM. For the same molecule, the TGI (HCT-15 colon) was > 100 µM, the TGI (MDA-MB-435) was > 100 µM and the TGI (EKVX NSCLC) was > 100 µM. The TGI (SR leukemia) was > 100 µM, the TGI (T-47D breast) was > 100 µM and the TGI (TK-10 renal) was > 100 µM. The TGI (ACHN renal) was > 100 µM, the TGI (NCI-H522 lung) was > 100 µM and the TGI (DU-145 prostate) was > 100 µM. The TGI (U251 CNS) was > 100 µM, the TGI (UO-31 renal) was > 100 µM and the TGI (OVCAR-3 ovarian) was > 100 µM. The TGI (SF-295 CNS) was > 100 µM, the TGI (KM12 colon) was > 100 µM and the TGI (COLO 205 colon) was > 100 µM. The TGI (MDA-MB-231 breast) was > 100 µM, the TGI (HL-60(TB) leukemia) was > 100 µM and the TGI (HOP-62 NSCLC) was > 100 µM. For the same molecule, the TGI (MALME-3M melanoma) was > 100 µM, the TGI (OVCAR-8 ovarian) was > 100 µM and the TGI (NCI-H23 lung) was > 100 µM. The TGI (MDA-N) was > 100 µM, the TGI (NCI/ADR-RES ovarian) was > 100 µM and the TGI (HOP-92 NSCLC) was > 100 µM. The TGI (786-0 renal) was > 100 µM, the TGI (IGROV1 ovarian) was > 100 µM and the TGI (SNB-19 CNS) was > 100 µM. The TGI (PC-3 prostate) was > 100 µM, the TGI (K-562 leukemia) was > 100 µM and the TGI (SK-MEL-5 melanoma) was 63.7 µM. For the same molecule, the TGI (HCT-116 colon) was > 100 µM, the TGI (UACC-62 melanoma) was > 100 µM and the TGI (SNB-75 CNS) was > 100 µM. The TGI (SK-MEL-28 melanoma) was > 100 µM, the TGI (HT29 colon) was > 100 µM and the TGI (HCC-2998 colon) was > 100 µM. For the same molecule, the TGI (SF-268 CNS) was > 100 µM, the TGI (SK-OV-3 ovarian) was > 100 µM and the TGI (RPMI-8226 leukemia) was > 100 µM. The TGI (HS 578T breast) was > 100 µM, the TGI (BT-549 breast) was > 100 µM and the TGI (CCRF-CEM leukemia) was > 100 µM. The TGI (SF-539 CNS) was > 100 µM, the TGI (OVCAR-5 ovarian) was > 100 µM and the TGI (A549 NSCLC) was > 100 µM. The TGI (OVCAR-4 ovarian) was > 100 µM, the TGI (LOX IMVI melanoma) was > 100 µM and the TGI (SW-620 colon) was > 100 µM. The TGI (M14 melanoma) was > 100 µM, the TGI (CAKI-1 renal) was 34.3 µM and the TGI (A498 renal) was > 100 µM. The TGI (NCI-H460 lung) was > 100 µM, the TGI (RXF 393 renal) was > 100 µM and the TGI (MOLT-4 leukemia) was > 100 µM. The TGI (MCF7 breast) was > 100 µM.
